Test results taken from patent publication US11261211B2, “19-NOR neuroactive steroids and methods of use thereof” (Sage Therapeutics, Inc., priority 2013, dated 2022).

What follows are molecules tested against α1β2γ2 GABAA receptor (Homo sapiens (Human), UniProt P14867+P47870) (assay: Patch clamp electrophysiology of recombinant α1β2γ2 GABAA receptors in LTK cells). Details: 10 μM compound, Qpatch, Ltk cells, GABA EC20 2 μM.
Type: cell-based
Protocol: Cellular electrophysiology is used to measure the pharmacological properties of our GABAA receptor modulators in heterologous cell systems. Each compound is tested for its ability to affect GABA mediated currents at a submaximal agonist dose (GABA EC20=2 μM). LTK cells are stably transfected with the α1β2γ2 subunits of the GABA receptor and CHO cells are transiently transfected with the α4β3δ subunits via the Lipofecatamine method. Cells were passaged at a confluence of about 50-80% and then seeded onto 35 mm sterile culture dishes containing 2 ml culture complete medium without antibiotics or antimycotics. Confluent clusters of cells are electrically coupled (Pritchett et al., 1988). Because responses in distant cells are not adequately voltage clamped and because of uncertainties about the extent of coupling (Verdoorn et al., 1990), cells were cultivated at a density that enables the recording of single cells (without visible connections to other cells).
Whole cell currents were measured with HEKA EPC-10 amplifiers using PatchMaster software or by using the high throughput QPatch platform (Sophion). Bath solution for all experiments contained (in mM): NaCl 137 mM, KCl 4 mM, CaCl2 1.8 mM, MgCl2 1 mM, HEPES 10 mM, D-Glucose 10 mM, pH (NaOH) 7.4. In some cases 0.005% cremophor was also added. Intracellular (pipette) solution contained: KCl 130 mM, MgCl2 1 mM, Mg-ATP 5 mM, HEPES 10 mM, EGTA 5 mM, pH 7.2. During experiments, cells and solutions were maintained at room temperature (19° C.-30° C.). For manual patch clamp recordings, cell culture dishes were placed on the dish holder of the microscope and continuously perfused (1 ml/min) with bath solution. After formation of a Gigaohm seal between the patch electrodes and the cell (pipette resistance range: 2.5 MΩ-6.0 MΩ; seal resistance range: >1 GΩ) the cell membrane across the pipette tip was ruptured to assure electrical access to the cell interior (whole-cell patch-configuration). For experiments using the QPatch system, cells were transferred as suspension to the QPatch system in the bath solution and automated whole cell recordings were performed.
Cells were voltage clamped at a holding potential of −80 mV. For the analysis of test articles, GABA receptors were stimulated by 2 μM GABA after sequential pre-incubation of increasing concentrations of the test article. Pre-incubation duration was 30 s and the duration of the GABA stimulus was 2 s. Test articles were dissolved in DMSO to form stock solutions (10 mM). Test articles were diluted to 0.01, 0.1, 1, and 10 μM in bath solution. All concentrations of test articles were tested on each cell. The relative percentage potentiation was defined as the peak amplitude in response to GABA EC20 in the presence of the test article divided by the peak amplitude in response to GABA EC20 alone, multiplied by 100.

| Structure (SMILES) | α1β2γ2 GABA Qpatch in Ltk (Efficacy at 10 μm) |
| --- | --- |
| C[C@@]1(O)CC[C@H]2[C@@H](CC[C@@H]3[C@@H]2CC[C@]2(C)[C@@H](C(=O)Cn4ncc5ncccc54)CC[C@@H]32)C1 [SB-5] | B (“B” indicates an efficacy value of >100-500%) |
| C[C@@]1(O)CC[C@H]2[C@@H](CC[C@@H]3[C@@H]2CC[C@]2(C)[C@@H](C(=O)Cn4ncc5ccncc54)CC[C@@H]32)C1 [SB-10] | B (“B” indicates an efficacy value of >100-500%) |
| C[C@@]1(O)CC[C@H]2[C@H](CC[C@@H]3[C@@H]2CC[C@]2(C)[C@@H](C(=O)Cn4ncc5ccccc54)CC[C@@H]32)C1 [SA-5] | C (“C” indicates an efficacy value of >500%) |
| C[C@@]1(O)CC[C@H]2[C@H](CC[C@@H]3[C@@H]2CC[C@]2(C)[C@@H](C(=O)Cn4ncc5c4CCCC5)CC[C@@H]32)C1 [SA-8] | B (“B” indicates an efficacy value of >100-500%) |

Same assay, conditions: LTK, 10 μM compound, Qpatch, Ltk cells, GABA EC20 2 μM; read-out: α1β2γ2 GABA Qpatch in Ltk (Efficacy at 10 μm)

| Structure (SMILES) | activity at 10 µM [%] |
| --- | --- |
| COc1cccc2c1nnn2CC(=O)[C@H]1CC[C@H]2[C@@H]3CC[C@@H]4C[C@](C)(O)CC[C@@H]4[C@H]3CC[C@]12C [SA-74] | 100 to 500 |
| C[C@]12CC[C@H]3[C@@H](CC[C@@H]4C[C@@](O)(C(F)F)CC[C@@H]43)[C@@H]1CC[C@@H]2C(=O)Cn1nnc2ccccc21 [SA-90] | 10 to 100 |
| C[C@@]1(O)CC[C@H]2[C@H](CC[C@@H]3[C@@H]2CC[C@]2(C)[C@@H](C(=O)Cn4cc5cc(C#N)ccc5n4)CC[C@@H]32)C1 [SA-37] | > 500 |
| C[C@@]1(O)CC[C@H]2[C@H](CC[C@@H]3[C@@H]2CC[C@]2(C)[C@@H](C(=O)Cn4ncc5cc(F)ccc54)CC[C@@H]32)C1 [SA-17] | 100 to 500 |
| COC[C@@]1(O)CC[C@H]2[C@H](CC[C@@H]3[C@@H]2CC[C@]2(C)[C@@H](C(=O)Cn4ncc5ccncc54)CC[C@@H]32)C1 [SA-119] | > 500 |
| Cn1c(CC(=O)[C@H]2CC[C@H]3[C@@H]4CC[C@@H]5C[C@](C)(O)CC[C@@H]5[C@H]4CC[C@]23C)nc2ccccc21 [SA-105] | > 500 |
| C[C@]12CC[C@H]3[C@@H](CC[C@@H]4C[C@@](O)(CF)CC[C@@H]43)[C@@H]1CC[C@@H]2C(=O)Cn1nc2ccc(F)cc2n1 [SA-89] | 100 to 500 |
| CC[C@@]1(O)CC[C@H]2[C@@H](CC[C@@H]3[C@@H]2CC[C@]2(C)[C@@H](C(=O)Cn4nc5ccc(F)cc5n4)CC[C@@H]32)C1 [SB-39] | 10 to 100 |
| Cc1ccc2nnn(CC(=O)[C@H]3CC[C@H]4[C@@H]5CC[C@@H]6C[C@](C)(O)CC[C@@H]6[C@H]5CC[C@]34C)c2c1 [SA-42] | 100 to 500 |
| COC[C@@]1(O)CC[C@H]2[C@@H](CC[C@@H]3[C@@H]2CC[C@]2(C)[C@@H](C(=O)Cn4nnc5ccccc54)CC[C@@H]32)C1 [SB-49] | 100 to 500 |
| C[C@@]1(O)CC[C@H]2[C@H](CC[C@@H]3[C@@H]2CC[C@]2(C)[C@@H](C(=O)Cn4nnc5c(F)cccc54)CC[C@@H]32)C1 [SA-64] | 100 to 500 |
| C[C@@]1(O)CC[C@H]2[C@H](CC[C@@H]3[C@@H]2CC[C@]2(C)[C@@H](C(=O)Cn4nnc5cccnc54)CC[C@@H]32)C1 [SA-15] | > 500 |
| COC[C@@]1(O)CC[C@H]2[C@H](CC[C@@H]3[C@@H]2CC[C@]2(C)[C@@H](C(=O)Cn4cc5ncccc5n4)CC[C@@H]32)C1 [SA-116] | > 500 |
| COC[C@@]1(O)CC[C@H]2[C@@H](CC[C@@H]3[C@@H]2CC[C@]2(C)[C@@H](C(=O)Cn4ncc5ncccc54)CC[C@@H]32)C1 [SB-48] | > 500 |
| CCOC[C@@]1(O)CC[C@H]2[C@@H](CC[C@@H]3[C@@H]2CC[C@]2(C)[C@@H](C(=O)Cn4ncc5ncccc54)CC[C@@H]32)C1 [SB-54] | 100 to 500 |
| C[C@]12CC[C@H]3[C@@H](CC[C@@H]4C[C@@](O)(C(F)F)CC[C@@H]43)[C@@H]1CC[C@@H]2C(=O)Cn1nnc2cnccc21 [SA-96] | 100 to 500 |
| C[C@]12CC[C@H]3[C@@H](CC[C@@H]4C[C@@](O)(CF)CC[C@@H]43)[C@@H]1CC[C@@H]2C(=O)Cn1nnc2ccccc21 [SA-79] | > 500 |
| CC[C@@]1(O)CC[C@H]2[C@@H](CC[C@@H]3[C@@H]2CC[C@]2(C)[C@@H](C(=O)Cn4ncc5ncccc54)CC[C@@H]32)C1 [SB-30] | 100 to 500 |
| C[C@@]1(O)CC[C@H]2[C@H](CC[C@@H]3[C@@H]2CC[C@]2(C)[C@@H](C(=O)Cn4ncc5cc(C#N)ccc54)CC[C@@H]32)C1 [SA-38] | > 500 |
| CCOC[C@@]1(O)CC[C@H]2[C@@H](CC[C@@H]3[C@@H]2CC[C@]2(C)[C@@H](C(=O)Cn4cc5ncccc5n4)CC[C@@H]32)C1 [SB-55] | 10 to 100 |

| Structure (SMILES) | activity at 10 µM [%] |
| --- | --- |
| Cc1cccc2c1nnn2CC(=O)[C@H]1CC[C@H]2[C@@H]3CC[C@@H]4C[C@](C)(O)CC[C@@H]4[C@H]3CC[C@]12C [SA-67] | > 500 |
| C[C@]12CC[C@H]3[C@@H](CC[C@H]4C[C@@](O)(CF)CC[C@@H]43)[C@@H]1CC[C@@H]2C(=O)Cn1ncc2ncccc21 [SB-17] | 10 to 100 |
| C[C@]12CC[C@H]3[C@@H](CC[C@@H]4C[C@@](O)(CF)CC[C@@H]43)[C@@H]1CC[C@@H]2C(=O)Cn1ncc2ncccc21 [SA-84] | 100 to 500 |
| C[C@]12CC[C@H]3[C@@H](CC[C@H]4C[C@@](O)(CF)CC[C@@H]43)[C@@H]1CC[C@@H]2C(=O)Cn1nnc2cnccc21 [SB-14] | 10 to 100 |
| C[C@@]1(O)CC[C@H]2[C@H](CC[C@@H]3[C@@H]2CC[C@]2(C)[C@@H](C(=O)Cn4nnc5cc(Cl)ccc54)CC[C@@H]32)C1 [SA-40] | 100 to 500 |
| C[C@@]1(O)CC[C@H]2[C@H](CC[C@@H]3[C@@H]2CC[C@]2(C)[C@@H](C(=O)Cn4ncc5cncnc54)CC[C@@H]32)C1 [SA-36] | > 500 |
| C[C@@]1(O)CC[C@H]2[C@H](CC[C@@H]3[C@@H]2CC[C@]2(C)[C@@H](C(=O)Cn4nnc5cnccc54)CC[C@@H]32)C1 [SA-12] | 100 to 500 |
| CC[C@@]1(O)CC[C@H]2[C@H](CC[C@@H]3[C@@H]2CC[C@]2(C)[C@@H](C(=O)Cn4nnc5cnccc54)CC[C@@H]32)C1 [SA-112] | 100 to 500 |
| COC[C@@]1(O)CC[C@H]2[C@@H](CC[C@@H]3[C@@H]2CC[C@]2(C)[C@@H](C(=O)Cn4ncc5ccncc54)CC[C@@H]32)C1 [SB-46] | 100 to 500 |
| C[C@]12CC[C@H]3[C@@H](CC[C@@H]4C[C@@](O)(C(F)F)CC[C@@H]43)[C@@H]1CC[C@@H]2C(=O)Cn1cc2ccncc2n1 [SA-99] | > 500 |
| C[C@]12CC[C@H]3[C@@H](CC[C@H]4C[C@@](O)(CF)CC[C@@H]43)[C@@H]1CC[C@@H]2C(=O)Cn1nc2ccccc2n1 [SB-13] | 100 to 500 |
| COC[C@@]1(O)CC[C@H]2[C@@H](CC[C@@H]3[C@@H]2CC[C@]2(C)[C@@H](C(=O)Cn4nc5ccncc5n4)CC[C@@H]32)C1 [SB-44] | > 500 |
| C[C@]12CC[C@H]3[C@@H](CC[C@H]4C[C@@](O)(CF)CC[C@@H]43)[C@@H]1CC[C@@H]2C(=O)Cn1cc2ccncc2n1 [SB-18] | > 500 |
| COC[C@@]1(O)CC[C@H]2[C@H](CC[C@@H]3[C@@H]2CC[C@]2(C)[C@@H](C(=O)Cn4ncc5ncccc54)CC[C@@H]32)C1 [SA-117] | > 500 |
| C[C@]12CC[C@H]3[C@@H](CC[C@H]4C[C@@](O)(CF)CC[C@@H]43)[C@@H]1CC[C@@H]2C(=O)Cn1nnc2ccccc21 [SB-12] | 100 to 500 |
| C[C@]12CC[C@H]3[C@@H](CC[C@@H]4C[C@@](O)(CF)CC[C@@H]43)[C@@H]1CC[C@@H]2C(=O)Cn1ncc2ccncc21 [SA-86] | 100 to 500 |
| CC[C@@]1(O)CC[C@H]2[C@@H](CC[C@@H]3[C@@H]2CC[C@]2(C)[C@@H](C(=O)Cn4nc5ccncc5n4)CC[C@@H]32)C1 [SB-34] | > 500 |
| C[C@@]1(O)CC[C@H]2[C@@H](CC[C@@H]3[C@@H]2CC[C@]2(C)[C@@H](C(=O)Cn4nnc5ccccc54)CC[C@@H]32)C1 [SB-1] | 100 to 500 |
| CCOC[C@@]1(O)CC[C@H]2[C@@H](CC[C@@H]3[C@@H]2CC[C@]2(C)[C@@H](C(=O)Cn4cc5ccncc5n4)CC[C@@H]32)C1 [SB-57] | 100 to 500 |

Same assay, conditions: LTK; potentiation of GABA EC20 (2 μM) current; read-out: GABAa alpha1 (α1β2γ2) Emax (%)

| Structure (SMILES) | Emax [%] |
| --- | --- |
| C[C@@]1(O)CC[C@H]2[C@H](CC[C@@H]3[C@@H]2CC[C@]2(C)[C@@H](C(=O)Cn4ncc5ccccc54)CC[C@@H]32)C1 [SA-5] | 500 to 1000 |
| C[C@@]1(O)CC[C@H]2[C@H](CC[C@@H]3[C@@H]2CC[C@]2(C)[C@@H](C(=O)Cn4ncc5c4CCCC5)CC[C@@H]32)C1 [SA-8] | 0 to 500 |

Same assay, conditions: potentiation of GABA EC20 (2 μM) current; read-out: GABAa alpha1 (α1β2γ2)EC50

| Structure (SMILES) | EC50 [µM] |
| --- | --- |
| C[C@@]1(O)CC[C@H]2[C@H](CC[C@@H]3[C@@H]2CC[C@]2(C)[C@@H](C(=O)Cn4ncc5ccccc54)CC[C@@H]32)C1 [SA-5] | 1 to 2 |
| C[C@@]1(O)CC[C@H]2[C@H](CC[C@@H]3[C@@H]2CC[C@]2(C)[C@@H](C(=O)Cn4ncc5c4CCCC5)CC[C@@H]32)C1 [SA-8] | 1 to 2 |
